Assay results published in US20240391862A1, “(1,4,5-TRISUBSTITUTED-1H-PYRAZOL-3-YL)OXY-2-ALKOXY ALKYL ACIDS AND THEIR DERIVATIVES, THEIR SALTS AND THEIR USE AS HERBICIDAL AGENTS” (Bayer AKtiengesellschaft, priority 2021, published 2024).

Experiments:
[1] = tested on: ZEAMX; experiment: Post-emergence herbicidal effect and crop plant compatibility, greenhouse pot test; type: in vivo, Zea mays; conditions: one-leaf stage, rated visually after about 3 weeks vs untreated controls
Procedure, shortened: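 Greenhouse pot test: weeds and crops sown in sandy loam, sprayed post-emergence at one-leaf stage (2–3 weeks after sowing) with WP or EC formulations plus 0.5% additive at 600 l/ha water, rates 20–320 g/ha. Visual rating about 3 weeks later versus untreated controls (100% = dead, 0% = as control).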

[2] = tested on: ABUTH; experiment: Post-emergence herbicidal effect, greenhouse pot test; type: in vivo, Abutilon theophrasti; conditions: visual rating about 3 weeks after treatment
Procedure, shortened: (§1)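 Visual % activity scored roughly 3 weeks post-spray against untreated plants, where 100% means death and 0% equals control. Plants were treated at the one-leaf stage, 2 to 3 weeks after sowing in sandy loam, at 20 to 320 g/ha.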

[3] = tested on: ALOMY; experiment: as above; type: in vivo, Alopecurus myosuroides; conditions: visual rating about 3 weeks after treatment
Procedure, shortened: as §1

[4] = tested on: AMARE; experiment: as above; type: in vivo, Amaranthus retroflexus; conditions: visual rating about 3 weeks after treatment
Procedure, shortened: as §1

[5] = tested on: AVEFA; experiment: as above; type: in vivo, Avena fatua; conditions: visual rating about 3 weeks after treatment
Procedure, shortened: as §1

[6] = tested on: DIGSA; experiment: as above; type: in vivo, Digitaria sanguinalis; conditions: visual rating about 3 weeks after treatment
Procedure, shortened: as §1

[7] = tested on: ECHCG; experiment: as above; type: in vivo, Echinochloa crus-galli; conditions: for Post-emergence effect against ECHCG: 20 g/ha, visual rating about 3 weeks after treatment
Procedure, shortened: as §1

[8] = tested on: LOLRI; experiment: as above; type: in vivo, Lolium rigidum
Procedure, shortened: as §1

[9] = tested on: MATIN; experiment: as above; type: in vivo, Tripleurospermum inodorum
Procedure, shortened: as §1

[10] = tested on: PHBPU; experiment: as above; type: in vivo, Ipomoea purpurea
Procedure, shortened: as §1

[11] = tested on: POLCO; experiment: as above; type: in vivo, Fallopia convolvulus
Procedure, shortened: as §1

[12] = tested on: SETVI; experiment: as above; type: in vivo, Setaria viridis
Procedure, shortened: as §1

[13] = tested on: VERPE; experiment: as above; type: in vivo, Veronica persica
Procedure, shortened: as §1

[14] = tested on: VIOTR; experiment: as above; type: in vivo, Viola tricolor
Procedure, shortened: as §1

[15] = tested on: KCHSC; experiment: as above; type: in vivo
Procedure, shortened: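 Greenhouse plants in sandy loam, sprayed post-emergence at the one-leaf stage (2–3 weeks after sowing) with WP or EC formulations in water plus 0.5% additive at 600 l/ha. Rates 20 to 320 g/ha. Activity rated visually after about 3 weeks against untreated controls (0% like control, 100% dead).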

Row | Compound | Post-emergence effect against ABUTH ([2]; 80 g/ha) [%] | Post-emergence effect against ABUTH ([2]; 320 g/ha) [%] | Post-emergence effect against ALOMY ([3]; 320 g/ha) [%] | Post-emergence effect against AMARE ([4]; 80 g/ha) [%] | Post-emergence effect against AMARE ([4]; 320 g/ha) [%] | Post-emergence effect against AVEFA ([5]; 80 g/ha) [%] | Post-emergence effect against AVEFA ([5]; 320 g/ha) [%] | Post-emergence effect against DIGSA ([6]; 320 g/ha) [%] | Post-emergence effect against ECHCG [7] [%] | Post-emergence effect against ECHCG in % ([7]; 80 g/ha) [%] | Post-emergence effect against ECHCG in % ([7]; 320 g/ha) [%] | Post-emergence effect against LOLRI in % ([8]; 320 g/ha) [%] | Post-emergence effect against MATIN in % ([9]; 320 g/ha) [%] | Post-emergence effect against PHBPU in % ([10]; 80 g/ha) [%] | Post-emergence effect against PHBPU in % ([10]; 320 g/ha) [%] | Post-emergence effect against POLCO in % ([11]; 80 g/ha) [%] | Post-emergence effect against POLCO in % ([11]; 320 g/ha) [%] | Post-emergence effect against SETVI in % ([12]; 80 g/ha) [%] | Post-emergence effect against SETVI in % ([12]; 320 g/ha) [%] | Post-emergence effect against VERPE in % ([13]; 80 g/ha) [%] | further results
1 | COC(=O)CCOC(=O)C(OC)Oc1nn(-c2ncccc2F)c(-c2cncc(F)c2)c1C1CC1 (stereo not drawn) [Example I-82] | 90 | 90 | 90 | 90 | 90 | 90 | 90 | 90 | 80 | 90 | 90 | 90 | 90 | 80 | 90 | 80 | 90 | 90 | 90 | 90 | Post-emergence effect at 20 g/ha against ZEAMX in % ([1]; 20 g/ha): 20%; Post-emergence effect against ABUTH ([2]; 20 g/ha): 80%; Post-emergence effect against DIGSA ([6]; 80 g/ha): 90%; Post-emergence effect against MATIN in % ([9]; 80 g/ha): 80%; Post-emergence effect against POLCO in % ([11]; 20 g/ha): 80%; Post-emergence effect against SETVI in % ([12]; 20 g/ha): 90%; Post-emergence effect against VERPE in % ([13]; 320 g/ha): 90%; Post-emergence effect against VIOTR in % ([14]; 20 g/ha): 80%; Post-emergence effect against VIOTR in % ([14]; 80 g/ha): 90%; Post-emergence effect against VIOTR in % ([14]; 320 g/ha): 90%; Post-emergence effect against KCHSC in % ([15]; 20 g/ha): 90%; Post-emergence effect against KCHSC in % ([15]; 80 g/ha): 90%; Post-emergence effect against KCHSC in % ([15]; 320 g/ha): 90%
2 | COC(=O)C(OC)Oc1nn(-c2ncccc2F)c(-c2cncc(F)c2)c1C1CC1 (stereo not drawn) [Example I-86] | 80 | 80 | 90 | 80 | 90 | 90 | 90 | 80 | 80 | 90 | 90 | 90 | 90 | 90 | 90 | 80 | 90 | 90 | 90 | 80 | plant injury at 20 g/ha ([1]; Zea mays, 504 h, 20 g/ha, read-out: Post-emergence effect at 20 g/ha against ZEAMX in %): 0%; plant injury at 80 g/ha ([1]; Zea mays, 504 h, 80 g/ha, read-out: Post-emergence effect at 80 g/ha against ZEAMX in %): 0%; Post-emergence effect against ALOMY ([3]; 80 g/ha): 90%; pest or weed control at 20 g/ha ([5]; Avena fatua, 504 h, 20 g/ha, read-out: Post-emergence effect against AVEFA): 80%; Post-emergence effect against LOLRI in % ([8]; 80 g/ha): 90%; pest or weed control at 20 g/ha ([8]; Lolium rigidum, 504 h, 20 g/ha, read-out: Post-emergence effect against LOLRI in %): 80%; Post-emergence effect against PHBPU in % ([10]; 20 g/ha): 80%; pest or weed control at 20 g/ha ([11]; Fallopia convolvulus, 504 h, 20 g/ha, read-out: Post-emergence effect against POLCO in %): 80%; Post-emergence effect against VERPE in % ([13]; 320 g/ha): 90%; Post-emergence effect against VIOTR in % ([14]; 80 g/ha): 90%; Post-emergence effect against VIOTR in % ([14]; 320 g/ha): 90%; Post-emergence effect against KCHSC in % ([15]; 80 g/ha): 90%; Post-emergence effect against KCHSC in % ([15]; 320 g/ha): 90%
